Paper PMC11859074, “Exploring the Anticancer Potential of NO-Donor Oxadiazole Assemblies Against Malignant Pleural Mesothelioma” (Pharmaceutics, 2025)
Values joined by “and” are separate entries in the source; they are usually repeats but may differ in a detail not shown here. Equal entries are not always repeated.

Tests used:
[1] = test system: AB1 (mouse malignant mesothelioma cell line); assay: MTT cytotoxicity assay, AB1 cells; type: cell-based; conditions: 72 h exposure
Method: (§1) AB1 (mouse malignant mesothelioma cell line) and JU77 (human mesothelioma cell line) were obtained from Cell Bank Australia; MRC-5 (human embryonic lung fibroblast cell line) was obtained from ATCC. […] Cells were grown in tissue culture flasks (75 cm^2 and 25 cm^2, SPL Life Sciences, Pocheon, South Korea). […] The cytotoxicity of compounds was determined using the MTT colorimetric test. Cells were harvested from culture flasks by trypsinization and seeded into Cellstar 96-well microculture plates at a seeding density of 6000 cells per well (6 × 10^4 cells per mL). After the cells were allowed to resume exponential growth for 24 h, they were exposed to drugs at different concentrations in media for 72 h. The tested compounds were diluted in the complete medium at the desired concentrations added to each well (100 μL) and serially diluted to other wells. After 72 h of exposure, the medium was replaced with MTT (5 mg mL^−1, 100 μL per well) and incubated for an additional 50 min. Subsequently, the medium was aspirated, and the purple formazan crystals formed in viable cells were dissolved in DMSO (100 μL per well). […] The evaluation was based on means from at least three independent experiments, each comprising three replicates per concentration level.

[2] = test system: JU77 (human mesothelioma cell line); assay: cells; type: cell-based; conditions: for IC50: Homo sapiens, MTT assay, 72 h exposure; for SFJU77 (selectivity factor): IC50(MRC-5)/IC50(JU77); for times higher cytotoxicity in human MPM cells compared to human lung fibroblasts: 72 h
Method: as §1

[3] = test system: MRC-5 (human embryonic lung fibroblast cell line); assay: MTT cytotoxicity assay, MRC-5 cells; type: cell-based; conditions: MRC5, 72 h exposure
Method: as §1

[4] = NO release assay (Griess assay, phosphate buffer with L-cysteine); conditions: for NO Released (%) 1 h / NO Released (%) 24 h / NO Released (%) 48 h: % NO2− (μmol/μmol) relative to initial concentration (100 μM), L-cysteine; for NO Released (%) 1 h: phosphate buffer pH 7.4, 37 °C; for NO Released (%) 24 h: phosphate buffer pH 7.4, 24 h; for NO Released (%) 48 h: phosphate buffer pH 7.4, 48 h; for NO-donor capacity: Griess assay, time point not stated; for Fold Change 24 h/1 h: ratio of NO released at 24 h to 1 h; for Fold Change 48 h/1 h: ratio of NO released at 48 h to 1 h; for Fold Change 48 h/24 h: ratio of NO released at 48 h to 24 h
[5] = test system: AB1 and JU77 mesothelioma cell lines; assay: cells; type: cell-based, mouse and human; conditions: MPM; range over AB1 and JU77, 72 h MTT; read-out: IC50 values in both cell lines
Method: as §1

Row | Compound | IC50 [1] [µM] | IC50 [2] [µM] | SFJU77 (selectivity factor) [2] | times higher cytotoxicity in human MPM cells compared to human lung fibroblasts [2] | IC50 [3] [µM] | NO Released (%) 1 h [4] | NO Released (%) 24 h [4] [%] | NO Released (%) 48 h [4] [%] | NO-donor capacity [4] [%] | Fold Change 24 h/1 h [4] | Fold Change 48 h/1 h [4] | Fold Change 48 h/24 h [4] | IC50 [5] [µM] | selectivity for cancer cells (in words) ([2]; MPM cells vs MRC-5 human lung fibroblasts)
1 | N#Cc1c(-c2noc(-c3cccc([N+](=O)[O-])c3)n2)no[n+]1[O-] [Compound 2c, 3-Cyano-4-(5-(3-nitrophenyl)-1,2,4-oxadiazolyl)furoxan] | 2.8 ± 0.5 | 1.2 ± 0.2 | 3.6 | 2.4-3.6 times | 4.3 ± 0.3 | 61 ± 8% | 107 ± 8 | 107 ± 10 | > 100 | 1.8 | 1.8 | 1.0 | – | –
2 | N#Cc1c(-c2noc(-c3ccco3)n2)no[n+]1[O-] [Compound 2k, 3-Cyano-4-(5-(2-furyl)-1,2,4-oxadiazolyl)furoxan] | 1.4 ± 0.4 | 0.99 ± 0.13 | 1.5 | – | 1.5 ± 0.3 | 73 ± 7% | 97 ± 6 | 104 ± 12 | > 100 | 1.3 | 1.4 | 1.1 | 0.87 to 1.8 | –
3 | COc1ccc(-c2nc(-c3no[n+]([O-])c3C#N)no2)cc1OC [Compound 2i, 3-Cyano-4-(5-(3,4-dimethoxyphenyl)-1,2,4-oxadiazolyl)furoxan] | 3.3 ± 0.7 | 1.6 ± 0.4 | 2.5 | 2.4-3.6 times | 4 ± 0.6 | 54 ± 14% | 82 ± 14 | 94 ±14 | – | 1.5 | 1.7 | 1.1 | – | –
4 | Cc1ccc(-c2nc(-c3no[n+]([O-])c3C#N)no2)cc1 [Compound 2g, 3-Cyano-4-(5-(p-tolyl)-1,2,4-oxadiazolyl)furoxan] | 4.9 ± 1.4 | 3.1 ± 0.2 | 1.5 | – | 4.8 ± 0.3 | 59 ± 1% | 74 ± 6 | 81 ± 10 | – | 1.3 | 1.4 | 1.1 | – | –
5 | CCOc1no[n+]([O-])c1S(=O)(=O)c1ccccc1 [CHF-2363, 4-ethoxy-3-phenylsulphonylfuroxan, reference compound] | – | – | – | – | – | 26 ± 10% | 71 ± 4 | 77 ± 9 | – | 2.7 | 3.0 | 1.1 | – | –
6 | N#Cc1c(-c2noc(-c3ccncc3)n2)no[n+]1[O-] [Compound 2e, 3-Cyano-4-(5-(pyridin-4-yl)-1,2,4-oxadiazolyl)furoxan] | 7.9 ± 2 | 4.2 ± 0.8 | 1.1 | – | 4.7 ± 0.3 | 53 ± 7% | 87 ± 13 | 87 ± 11 | – | 1.6 | 1.6 | 1.0 | – | low selectivity for cancer cells
7 | N#Cc1c(-c2noc(-c3ccccc3)n2)no[n+]1[O-] [Compound 2a, 3-Cyano-4-(5-phenyl-1,2,4-oxadiazolyl)furoxan] | 3.4 ± 0.2 | 3.7 ± 1 | 1.0 | – | 3.7 | 50 ± 8% | 59 ± 5 | 89 ± 6 | – | 1.2 | 1.8 | 1.5 | – | –
8 | COc1ccc(-c2nc(-c3no[n+]([O-])c3C#N)no2)cc1 [Compound 2h, 3-Cyano-4-(5-(4-methoxyphenyl)-1,2,4-oxadiazolyl)furoxan] | 4.1 ± 0.7 | 2.9 ± 0.3 | 1.4 | – | 4.2 ± 0.7 | 54 ± 6% | 79 ± 5 | 86 ± 4 | – | 1.5 | 1.6 | 1.1 | – | –
9 | N#Cc1c(-c2noc(-c3ccc([N+](=O)[O-])cc3)n2)no[n+]1[O-] [Compound 2b, 3-Cyano-4-(5-(4-nitrophenyl)-1,2,4-oxadiazolyl)furoxan] | 4.1 ± 0.9 | 2.7 ± 0.2 | 1.6 | – | 4.4 ± 0.6 | 51 ± 11% | 74 ± 1 | 80 ± 4 | – | 1.5 | 1.6 | 1.1 | – | –
10 | NC(=O)c1c(CO)no[n+]1[O-] [CAS-1609, 3-carbamoyl-4-(hydroxymethyl)furoxan, reference compound] | – | – | – | – | – | 27% and 27 ± 3% | 68 ± 6 | 73 ± 6 | – | 2.5 | 2.7 | 1.1 | – | –
11 | N#Cc1c(-c2noc(-c3ccccc3Cl)n2)no[n+]1[O-] [Compound 2j, 4-(5-(2-Chlorophenyl)-1,2,4-oxadiazolyl)-3-cyanofuroxan] | 2.1 ± 0.3 | 1.4 ± 0.2 | 2.4 | 2.4-3.6 times | 3.3 ± 0.3 | 53 ± 4% | 80 ± 3 | 84 ± 2 | – | 1.5 | 1.6 | 1.1 | – | –
